Experiment: Parallel artificial membrane permeability assay (PAMPA)
Type: in vitro ADME
Conditions: GIT PAMPA Double Sink
Method: Simulated intestinal fluid (SIF) was prepared by dissolving 3 mM sodium taurocholate and 0.1% (w/v) pancreatin in phosphate buffer (final pH = 7.0). The solubility of acacetin was measured by adding excessive amounts of acacetin into glass vials containing 1.5 mL of water, pH 7.4 phosphate buffer, SGF, and SIF. […] The samples were centrifuged at 16,000× g for 5 min, and the supernatant was passed through a 0.20-μm syringe filter to remove excess acacetin. Further, the concentration of acacetin in the filtrate was determined using the LC-MS/MS method. […] Finally, the acacetin concentrations in the octanol and water layers were determined using the LC-MS/MS method. […] The PAMPA was conducted using a commercially available PAMPA kit (GIT PAMPA Double Sink; pION Inc., Massachusetts, MA, USA) according to the manufacturer's protocol. The permeability was calculated using pION PAMPA Explorer ver. 3.8 software (pION Inc., Massachusetts, MA, USA).

SMILES: CNC(=C[N+](=O)[O-])NCCSCc1ccc(CN(C)C)o1 [ranitidine, reference compound]
- Papp: 0.411 ×10⁻⁶ cm/s

— paper PMC7911516, “Investigation of the Factors Responsible for the Poor Oral Bioavailability of Acacetin in Rats: Physicochemical and Biopharmaceutical Aspects” (Pharmaceutics, 2021)
